{
  "source": "patent US5288709A",
  "about": "“Erythromycin derivatives” (priority 1991, dated 1994)",
  "key": {"[1]": {"system": "Streptococcus bovis A5169", "assay": "In-vitro antimicrobial activity primary screen (agar dilution MIC)", "assay_type": "cell-based", "conditions": "Streptococcus equinus, BHI agar, 20-24 h", "summary_of_the_method": "(§1)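 BHI agar dilution MIC, 35-37° C overnight (20-24 h), replicator inoculation at 1:100 or 1:10 for slow strains. Endpoint: no growth, slight haze or sparse colonies versus compound-free plate.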"}, "[2]": {"system": "Staphylococcus aureus CMX 686B", "assay": "In-vitro antimicrobial activity primary screen (agar dilution MIC)", "assay_type": "cell-based", "conditions": "CMX686B, BHI agar, 20-24 h, read-out: MIC", "summary_of_the_method": "(§2)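 MIC is read as the lowest compound level yielding no growth, slight haze or sparse colonies on the inoculum spot, relative to a drug-free plate. Strains were replicator-inoculated (1:100 dilution) onto BHI agar plates holding twelve dilutions and held at 35-37 °C for 20-24 h, with erythromycin A as comparator.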"}, "[3]": {"system": "Staphylococcus aureus CMX 553", "assay": "In-vitro antimicrobial activity primary screen (agar dilution MIC)", "assay_type": "cell-based", "conditions": "BHI agar, 20-24 h", "summary_of_the_method": "as §2"}, "[4]": {"system": "Staphylococcus aureus CMX 503A", "assay": "In-vitro antimicrobial activity primary screen (agar dilution MIC)", "assay_type": "cell-based", "conditions": "BHI agar, 20-24 h", "summary_of_the_method": "as §2"}, "[5]": {"system": "Staphylococcus aureus (NCTC 10649)", "assay": "In-vivo acute mouse protection assay", "design": "species or system Staphylococcus aureus; female Swiss albino mice", "conditions": "dosed 1 and 5 h post-infection, observed 7 days", "procedure": "(§3) An acute mouse protection test was conducted on ten mice with each of three concentrations of selected compounds of the invention. Each concentration was a four-fold dilution of the previous concentration. The initial concentration will vary with the microorganism with which the mouse is challenged.\n(§4) The acute mouse protection test was conducted on female, Swiss albino mice, 18-20 grams in weight. […] To check the potency of the inoculum, a titration of the indicated test organism was carried out in control animals. The titration determines the LD50 for a particular microorganism. The treatment groups of animals were dosed orally, by gavage, or subcutaneously with the test compounds at 1 and 5 hours post-infection and observed for 7 days. The ED50 were calculated using the mortality data collected."}, "[6]": {"system": "Haemophilus influenzae (ATCC 43095)", "assay": "In-vivo acute mouse protection assay", "design": "species or system Haemophilus influenzae; female Swiss albino mice", "conditions": "dosed 1 and 5 h post-infection, observed 7 days", "procedure": "as §3, §4"}, "[7]": {"system": "Haemophilus influenzae ATCC 43095", "assay": "Treatment of induced otitis media in gerbils", "assay_type": "in vivo, Haemophilus influenzae; female mongolian gerbils", "conditions": "read-out: ED50 (dose required to reduce CFUs by 90%)", "procedure": "The effectiveness of one of the compounds of the present invention in treating otitis media was examined as desribed below. A five hour log phase culture of Haemophilus influenzae ATCC 43095 was prepared in brain heart infusion broth (BHIB) supplemented with 4% Fildes enrichment and 0.001% nicotinamide adenine dinucleotide (NAD; commerically available from Sigma Chemical Co., St. Louis, Missouri).\nImmediately prior to treatment with the test compounds, middle ear aspirates from five gerbils were obtained as described below and cultured to determine the level of infection at the onset of therapy. The test compounds produced by Example 19, (9S,11S)-11-Amino-9-deoxo-11,12-deoxy-9,12-epoxyerythromycin A, was administered orally by gavage in a 0.5 mL volume beginning 17 hours post infection and continuing three times daily for two days to groups of five gerbils. As a standard, a second group of gerbils was similarly treated using erythromycin. Eighteen hours after the final treatment, the gerbils were euthanized, 0.02 mL of BHIB injected into the middle ear bulla through the tympanic membrane, and middle ear aspirates collected and cultured.\nThe aspirates were diluted in BHIB and plated in duplicate onto chocolate agar. Colonies were counted after overnight incubation, and bacterial counts were expressed as colony forming units (CFUs) per middle ear. […]"}, "[8]": {"system": "Staphylococcus aureus NCTC 10649", "assay": "In-vitro antimicrobial activity primary screen (agar dilution MIC)", "assay_type": "cell-based", "conditions": "BHI agar, 20-24 h", "summary_of_the_method": "as §1"}, "[9]": {"system": "Staphylococcus aureus 642A", "assay": "In-vitro antimicrobial activity primary screen (agar dilution MIC)", "assay_type": "cell-based", "conditions": "BHI agar, 20-24 h", "summary_of_the_method": "as §1"}, "in vivo": {"assay": "in vivo", "conditions": "dog, iv, 10 mg/kg, t1/2 (biological half life), microbiological assay", "method": "Selected compounds of the present invention were formulated as solutions in dilute lactobionic acid at a concentration of 10 or 20 mg/ml. Groups of two or three dogs were given a 10 mg macrolide/kg intravenous bolus or oral dose (by gavage). Plasma samples, obtained at selected time points from 15 minutes to 32 hours after dosing, were assayed using reverse phase HPLC with electrochemical detection (parent drug) and microbiological assay (total microbiological activity). Plasma concentration time curves were subjected to multi exponential curve fitting to determine terminal elimination half life values. Area under the curve (AUC) values, calculated by the trapezoidal method, were used to calculate absolute bioavailability."}, "[10]": {"conditions": "Staphylococcus aureus, CMX553, 24 h, read-out: MIC"}, "[11]": {"conditions": "Staphylococcus aureus, CMX503A, 24 h, read-out: MIC"}, "[12]": {"conditions": "Staphylococcus aureus, NCTC10649, 168 h, oral, read-out: ED50"}, "[13]": {"conditions": "Staphylococcus aureus, NCTC10649, sc, 168 h, subcutaneous, read-out: ED50"}, "[14]": {"conditions": "ATCC43095, 168 h, oral, read-out: ED50"}},
  "note": "Several values for one entry are separate records, joined by “and”; a condition that tells them apart may be missing. Equal values may be shown once. Read-outs that look alike come from different tables or passages of the source.",
  "data": [
    {"smiles": "CC[C@H]1OC(=O)[C@H](C)[C@@H](O[C@H]2C[C@@](C)(OC)[C@@H](O)[C@H](C)O2)[C@H](C)[C@@H](O[C@@H]2O[C@H](C)C[C@H](N(C)C)[C@H]2O)[C@](C)(O)C[C@@H](C)[C@@H]2O[C@@]1(C)[C@@H](O)[C@H]2C", "note": "[Example 4, (9S,11S)-9-Deoxo-12-deoxy-9,12-epoxyerythromycin A]", "values": [
      {"measurement": "MIC", "setting": "[1]; A5169, 24 h", "result": 0.02, "unit": "µg/mL"},
      {"measurement": "MIC", "setting": "[2]", "result": 0.2, "unit": "µg/mL"},
      {"measurement": "MIC", "setting": "[3]; [10]", "result": 0.2, "unit": "µg/mL"},
      {"measurement": "MIC", "setting": "[4]; [11]", "result": 0.2, "unit": "µg/mL"},
      {"measurement": "ED50", "setting": "[5]; [12]", "result": 55, "unit": "mg/kg"},
      {"measurement": "ED50", "setting": "[5]; [13]", "result": 22.6, "unit": "mg/kg"},
      {"measurement": "ED50", "setting": "[6]; [14]", "result": 238, "unit": "mg/kg"},
      {"measurement": "ED50", "setting": "[6]; ATCC43095, sc, 168 h, subcutaneous, read-out: ED50", "result": 11.3, "unit": "mg/kg"}
    ]},
    {"smiles": "CC[C@H]1OC(=O)[C@H](C)[C@@H](O[C@H]2C[C@@](C)(OC)[C@@H](O)[C@H](C)O2)[C@H](C)[C@@H](O[C@@H]2O[C@H](C)C[C@H](N(C)C)[C@H]2O)[C@](C)(O)C[C@@H](C)[C@@H]2O[C@@]1(C)C(=O)[C@H]2C", "note": "[Example 5, (9S)-9-Deoxo-11,12-dideoxy-9,12-epoxy-11-oxoerythromycin A]", "values": [
      {"measurement": "MIC", "setting": "[1]; read-out: MIC", "result": 0.1, "unit": "µg/mL"},
      {"measurement": "MIC", "setting": "[2]", "result": 0.39, "unit": "µg/mL"},
      {"measurement": "MIC", "setting": "[3]; [10]", "result": 0.1, "unit": "µg/mL"},
      {"measurement": "MIC", "setting": "[4]; [11]", "result": 0.2, "unit": "µg/mL"},
      {"measurement": "ED50", "setting": "[5]; [12]", "result": 25.2, "unit": "mg/kg"},
      {"measurement": "ED50", "setting": "[5]; [13]", "result": 22.6, "unit": "mg/kg"}
    ]},
    {"smiles": "CC[C@H]1OC(=O)[C@H](C)[C@@H](O[C@H]2C[C@@](C)(OC)[C@H](N)[C@H](C)O2)[C@H](C)[C@@H](O[C@@H]2O[C@H](C)C[C@H](N(C)C)[C@H]2O)[C@](C)(O)C[C@@H](C)[C@@H]2O[C@@]1(C)[C@@H](O)[C@H]2C", "note": "[Example 13, (4\"R,9S,11S) 4\"-Amino-9-deoxo-4\",12-dideoxy-9,12-epoxyerythromycin A]", "values": [
      {"measurement": "MIC", "setting": "[1]; read-out: MIC", "result": 0.01, "unit": "µg/mL"},
      {"measurement": "MIC", "setting": "[2]", "result": 0.2, "unit": "µg/mL"},
      {"measurement": "MIC", "setting": "[3]; [10]", "result": 0.2, "unit": "µg/mL"},
      {"measurement": "MIC", "setting": "[4]; [11]", "result": 0.2, "unit": "µg/mL"},
      {"measurement": "ED50", "setting": "[5]; [12]", "result": 126, "unit": "mg/kg"},
      {"measurement": "ED50", "setting": "[5]; [13]", "result": 39.6, "unit": "mg/kg"}
    ]},
    {"smiles": "CC[C@H]1OC(=O)[C@H](C)[C@@H](O[C@H]2C[C@@](C)(OC)[C@@H](O)[C@H](C)O2)[C@H](C)[C@@H](O[C@@H]2O[C@H](C)C[C@H](N(C)C)[C@H]2O)[C@](C)(O)C[C@@H](C)[C@@H]2O[C@@]1(C)[C@@H](N)[C@H]2C", "note": "[Example 19, (9S,11S)-11-Amino-9-deoxo-11,12-deoxy-9,12-epoxyerythromycin A]", "values": [
      {"measurement": "MIC", "setting": "[1]; read-out: MIC", "result": 0.1, "unit": "µg/mL"},
      {"measurement": "MIC", "setting": "[2]", "result": 0.2, "unit": "µg/mL"},
      {"measurement": "MIC", "setting": "[3]; [10]", "result": 0.2, "unit": "µg/mL"},
      {"measurement": "MIC", "setting": "[4]; [11]", "result": 0.2, "unit": "µg/mL"},
      {"measurement": "ED50", "setting": "[5]; [12]", "result": 75.4, "unit": "mg/kg"},
      {"measurement": "ED50", "setting": "[5]; [13]", "result": 20.7, "unit": "mg/kg"},
      {"measurement": "ED50", "setting": "[7]; ATCC43095, gerbil, oral gavage three times daily for two days from 17 h post infection", "result": 46.5, "unit": "mg/kg"},
      {"measurement": "ED50", "setting": "[6]; [14]", "result": 101, "unit": "mg/kg"}
    ]},
    {"smiles": "CC[C@H]1OC(=O)[C@H](C)[C@@H](O[C@H]2C[C@@](C)(OC)[C@@H](O)[C@H](C)O2)[C@H](C)[C@@H](O[C@@H]2O[C@H](C)C[C@H](N(C)C)[C@H]2O)[C@](C)(O)C[C@@H](C)C(=O)[C@H](C)[C@@H](O)[C@]1(C)O", "note": "[Std, Erythromycin A, reference compound]", "values": [
      {"measurement": "MIC", "setting": "[8]", "result": 0.1, "unit": "microgram/mL"},
      {"measurement": "MIC", "setting": "[8]; Staphylococcus aureus, NCTC10649, 24 h", "result": 0.2, "unit": "µg/mL"},
      {"measurement": "MIC", "setting": "[9]", "result": 0.1, "unit": "microgram/mL"},
      {"measurement": "MIC", "setting": "[9]; Staphylococcus aureus, 642A, 24 h", "result": 0.2, "unit": "µg/mL"},
      {"measurement": "MIC", "setting": "[1]; A5169, 24 h", "result": 0.02, "unit": "µg/mL"},
      {"measurement": "MIC", "setting": "[2]", "result": 0.2, "unit": "µg/mL"},
      {"measurement": "MIC", "setting": "[3]", "result": 0.1, "unit": "microgram/mL"},
      {"measurement": "MIC", "setting": "[3]; [10]", "result": 0.2, "unit": "µg/mL"},
      {"measurement": "MIC", "setting": "[4]", "result": 0.1, "unit": "microgram/mL"},
      {"measurement": "MIC", "setting": "[4]; [11]", "result": 0.2, "unit": "µg/mL"},
      {"measurement": "ED50", "setting": "[5]; Staphylococcus aureus, NCTC10649, sc, 168 h, subcutaneous", "result": 12.9, "unit": "mg/kg"},
      {"measurement": "ED50", "setting": "[5]; subcutaneous, 10080 min", "result": "8.3 mg/kg and 11.6 mg/kg"},
      {"measurement": "ED50", "setting": "[7]; ATCC43095, po", "result": "> 300", "unit": "mg/kg"},
      {"measurement": "ED50", "setting": "[6]; ATCC43095, sc, 168 h, subcutaneous", "result": 29.7, "unit": "mg/kg"},
      {"measurement": "half-life", "setting": "in vivo", "result": 1.4, "unit": "h"}
    ]}
  ]
}
